In the NIST ThermoML archive (doi:10.1021/acs.jced.7b00106):

Conditions: Hot wire method

FC(F)(F)/C=C/Cl [(E)-1-chloro-3,3,3-trifluoroprop-1-ene]
Conditions	thermal conductivity [W/m/K]
302.53 K, 136 kPa, Gas	0.01102
302.53 K, 16444 kPa, Liquid	0.0897
302.53 K, 47194 kPa, Liquid	0.1006
302.55 K, 122 kPa, Gas	0.01105
302.55 K, 36223 kPa, Liquid	0.09702
302.57 K, 8074 kPa, Liquid	0.08557
302.59 K, 25791 kPa, Liquid	0.09335
302.6 K, 16014 kPa, Liquid	0.08919
302.61 K, 11882 kPa, Liquid	0.08715
302.61 K, 30546 kPa, Liquid	0.0947
302.62 K, 142 kPa, Gas	0.01123
302.62 K, 7818 kPa, Liquid	0.08552
302.64 K, 122 kPa, Gas	0.01131
302.64 K, 131 kPa, Gas	0.01128
302.64 K, 139 kPa, Gas	0.01119
302.65 K, 7853 kPa, Liquid	0.08571
302.65 K, 25491 kPa, Liquid	0.09284
302.66 K, 20510 kPa, Liquid	0.09077
302.68 K, 16449 kPa, Liquid	0.08922
302.7 K, 373 kPa, Liquid	0.08122
302.72 K, 4080 kPa, Liquid	0.08356
302.72 K, 8075 kPa, Liquid	0.08531
302.75 K, 11886 kPa, Liquid	0.08659
302.75 K, 16005 kPa, Liquid	0.08846
302.75 K, 62930 kPa, Liquid	0.106
302.76 K, 303 kPa, Liquid	0.08187
302.76 K, 65463 kPa, Liquid	0.1068
302.78 K, 7822 kPa, Liquid	0.08491
302.79 K, 56432 kPa, Liquid	0.1045
302.81 K, 7852 kPa, Liquid	0.08507
302.82 K, 48051 kPa, Liquid	0.1011
302.83 K, 48410 kPa, Liquid	0.1013
302.85 K, 131 kPa, Gas	0.0108
302.85 K, 136 kPa, Gas	0.01096
302.86 K, 122 kPa, Gas	0.011
302.87 K, 381 kPa, Liquid	0.08077
302.88 K, 4074 kPa, Liquid	0.08317
302.91 K, 62949 kPa, Liquid	0.1057
302.92 K, 299 kPa, Liquid	0.08155
302.92 K, 36387 kPa, Liquid	0.09706
302.92 K, 65445 kPa, Liquid	0.1067
302.93 K, 41986 kPa, Liquid	0.09906
302.93 K, 47187 kPa, Liquid	0.1008
302.95 K, 36224 kPa, Liquid	0.09698
302.95 K, 56429 kPa, Liquid	0.1038
302.98 K, 48055 kPa, Liquid	0.1009
303 K, 48417 kPa, Liquid	0.101
303.02 K, 25798 kPa, Liquid	0.09309
303.03 K, 30542 kPa, Liquid	0.09496
303.04 K, 142 kPa, Gas	0.01123
303.06 K, 137 kPa, Gas	0.01133
303.07 K, 121 kPa, Gas	0.01128
303.07 K, 131 kPa, Gas	0.01133
303.08 K, 25486 kPa, Liquid	0.09308
303.09 K, 20509 kPa, Liquid	0.09124
303.09 K, 41994 kPa, Liquid	0.09863
303.09 K, 47182 kPa, Liquid	0.1005
303.12 K, 16450 kPa, Liquid	0.08937
303.12 K, 36213 kPa, Liquid	0.09661
303.17 K, 135 kPa, Gas	0.01096
303.18 K, 122 kPa, Gas	0.01101
303.18 K, 132 kPa, Gas	0.0107
303.18 K, 8071 kPa, Liquid	0.0855
303.2 K, 16008 kPa, Liquid	0.08894
303.2 K, 25794 kPa, Liquid	0.0928
303.21 K, 11886 kPa, Liquid	0.08665
303.21 K, 30558 kPa, Liquid	0.09462
303.24 K, 7824 kPa, Liquid	0.08506
303.25 K, 25489 kPa, Liquid	0.09272
303.27 K, 20510 kPa, Liquid	0.09093
303.28 K, 7854 kPa, Liquid	0.08529
303.31 K, 16446 kPa, Liquid	0.08918
303.31 K, 62940 kPa, Liquid	0.1059
303.32 K, 65424 kPa, Liquid	0.1066
303.34 K, 383 kPa, Liquid	0.08114
303.35 K, 4071 kPa, Liquid	0.08347
303.36 K, 56409 kPa, Liquid	0.1043
303.38 K, 8070 kPa, Liquid	0.08486
303.38 K, 16014 kPa, Liquid	0.08858
303.39 K, 11885 kPa, Liquid	0.08675
303.4 K, 295 kPa, Liquid	0.08173
303.4 K, 48041 kPa, Liquid	0.1012
303.42 K, 48413 kPa, Liquid	0.1013
303.44 K, 7814 kPa, Liquid	0.0847
303.47 K, 7846 kPa, Liquid	0.0848
303.5 K, 136 kPa, Gas	0.01133
303.5 K, 62957 kPa, Liquid	0.1058
303.5 K, 65425 kPa, Liquid	0.1067
303.51 K, 132 kPa, Gas	0.01137
303.51 K, 41983 kPa, Liquid	0.09892
303.51 K, 47179 kPa, Liquid	0.1008
303.53 K, 122 kPa, Gas	0.01133
303.54 K, 4064 kPa, Liquid	0.08281
303.54 K, 56404 kPa, Liquid	0.1037
303.56 K, 36213 kPa, Liquid	0.09672
303.59 K, 293 kPa, Liquid	0.08112
303.6 K, 48039 kPa, Liquid	0.101
303.61 K, 48415 kPa, Liquid	0.101
303.71 K, 41980 kPa, Liquid	0.09862
303.71 K, 47178 kPa, Liquid	0.1004
303.76 K, 36210 kPa, Liquid	0.09644
303.97 K, 136 kPa, Gas	0.01134
304 K, 121 kPa, Gas	0.01134
304.01 K, 131 kPa, Gas	0.01133
304.5 K, 135 kPa, Gas	0.01137
304.51 K, 122 kPa, Gas	0.01139
304.53 K, 130 kPa, Gas	0.01127
305.03 K, 135 kPa, Gas	0.0114
305.05 K, 121 kPa, Gas	0.0114
305.16 K, 131 kPa, Gas	0.01092
305.6 K, 134 kPa, Gas	0.01142
305.62 K, 122 kPa, Gas	0.01143
305.74 K, 132 kPa, Gas	0.01105
311.53 K, 157 kPa, Gas	0.01177
311.84 K, 158 kPa, Gas	0.01185
311.93 K, 134 kPa, Gas	0.01187
312.17 K, 165 kPa, Gas	0.01181
312.19 K, 159 kPa, Gas	0.01198
312.22 K, 98 kPa, Gas	0.012
312.23 K, 134 kPa, Gas	0.01169
312.26 K, 135 kPa, Gas	0.01202
312.37 K, 191 kPa, Gas	0.012
312.46 K, 165 kPa, Gas	0.01175
312.5 K, 133 kPa, Gas	0.0117
312.53 K, 160 kPa, Gas	0.01191
312.56 K, 98 kPa, Gas	0.01197
312.64 K, 135 kPa, Gas	0.01197
312.67 K, 191 kPa, Gas	0.01194
312.76 K, 166 kPa, Gas	0.01173
312.79 K, 131 kPa, Gas	0.01152
312.81 K, 96 kPa, Gas	0.01168
312.82 K, 133 kPa, Gas	0.01159
312.93 K, 97 kPa, Gas	0.01203
312.94 K, 162 kPa, Gas	0.01192
312.97 K, 190 kPa, Gas	0.01196
313.06 K, 134 kPa, Gas	0.01201
313.06 K, 195 kPa, Gas	0.01197
313.07 K, 167 kPa, Gas	0.01173
313.11 K, 96 kPa, Gas	0.0116
313.11 K, 130 kPa, Gas	0.0115
313.15 K, 132 kPa, Gas	0.01155
313.31 K, 97 kPa, Gas	0.01207
313.35 K, 195 kPa, Gas	0.01196
313.36 K, 163 kPa, Gas	0.01197
313.42 K, 96 kPa, Gas	0.01157
